Structures are written as SMILES. Where a name gives a salt, the structure may show the parent alone.

One assay concerns SMN protein. The assay can be described thus: SMN protein assay (HTRF) in cultured SMA patient fibroblast cells. The format is cell-based. As to conditions: SMA Type 1 human fibroblasts GM03813, 48 hours; for EC1.5x SMN protein (EC1.5x concentration for SMN protein expression): 7-point concentration curve, concentration giving 1.5 times SMN protein vs vehicle; for max. fold increase (maximum fold increase of SMN protein): 7-point concentration data, fold vs vehicle control. In short, it runs like this: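 SMA patient fibroblasts seeded at 5,000 cells/well, treated 48 h at 37 °C in triplicate per concentration (7-point series). Lysed in RIPA with protease inhibitors; SMN read by HTRF (anti-SMN d2/kryptate, overnight RT), 665/620 nm ratio. ΔF vs blank, expressed as fold over vehicle; EC1.5x and maximum fold increase derived.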
In general terms: In TR-FRET formats the signal depends on donor and acceptor labels being close together.

For assay [1], the system named is full length SMN2 minigene mRNA (FL SMN2mini) in HEK293H cells stably transfected with the SMN2-A minigene construct. The assay can be described thus: SMN2 minigene mRNA splicing RT-qPCR assay in cultured cells. The format is cell-based. The note with it: Homo sapiens, HEK293-H, 24 hours, 7-point concentration curve, concentration giving 1.5-fold FL SMN2mini mRNA vs vehicle, read-out: EC1.5x minigene (EC1.5x concentration for production of full length SMN2 minigene mRNA). The method, boiled down:
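Stably transfected HEK293H cells, 10,000/well in DMEM/10% FBS with hygromycin, attached 6 h, then received compound for 24 h at 37° C in duplicate at 7 concentrations. Multiplex RT-qPCR with GAPDH used primers that detect only the minigene. An efficiency-corrected ΔΔCt, GAPDH- and vehicle-normalized, gave EC1.5x concentrations.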
Background: In qPCR the cycle at which signal appears reflects the starting amount.

`Cc1cn2cc(NC(=O)c3ccc(N4CCN[C@@H](C)C4)cc3)nc2c(C)n1` [Example 3, N-(6,8-Dimethyl-imidazo[1,2-a]-pyrazin-2-yl)-4-((S)-3-methyl-piperazin-1-yl)-benzamide]: in the assay on SMN protein, the “EC1.5x SMN protein (EC1.5x concentration for SMN protein expression)” value (“EC1.5x SMN protein” for short) stood at 1.47 µM and the “max. fold increase (maximum fold increase of SMN protein)” value (from here on “max. fold increase”) is reported as 1.7558. Besides, in assay [1], the EC (1.5-fold) stood at 0.552 µM.
The matching figures for `Cc1cn2cc(NC(=O)c3ccc(N4C[C@H]5CNC[C@H]5C4)nc3)ccc2n1` [Example 15, 6-hexahydro-pyrrolo[3,4-c]-pyrrol-2(1H)-yl)-N-(2-methyl-imidazo[1,2-a]-pyridin-6-yl)-nicotinamide hydrochloride]: 0.281 µM, 1.6859 and 0.254 µM.
With `Cc1cn2cc(NC(=O)c3ccc(N4CCNC(C)C4)nc3)cc(F)c2n1` (racemic) [Example 42, rac-N-(8-fluoro-2-methylimidazo-[1,2-a]pyridin-6-yl)-6-(3-methyl-piperazin-1-yl)-nicotinamide dihydrochloride], in the assay on SMN protein, the “EC1.5x SMN protein” value was found to be 0.1488 µM and the “max. fold increase” value came to 1.6988. For the same compound, the EC (1.5-fold) in assay [1] turned out to be 0.0544 µM.
The matching figures for `Cc1cn2cc(NC(=O)c3ccc(N4CCNC(C)C4)cc3F)c(C)cc2n1` (racemic) [Example 52, rac-N-(2,7-dimethyl-imidazo[1,2-a]-pyridin-6-yl)-2-fluoro-4-(3-methyl-piperazin-1-yl)-benzamide dihydrochloride]: 0.1518 µM, 1.8152 and 0.04 µM.
The matching figures for `Cc1cn2cc(NC(=O)c3ccc(N4CCNC(C)C4)nc3)ccc2n1` (racemic) [Example 12, rac-N-(2-methyl-imidazo[1,2-a]-pyridin-6-yl)-6-(3-methyl-piperazin-1-yl)nicotinamide]: 0.7037 µM, 1.6512 and 0.312 µM.
For `Cc1cn2cc(NC(=O)c3ccc(N4CCNC(C)C4)cc3F)cc(Cl)c2n1` (racemic) [Example 54, rac-N-(8-chloro-2-methylimidazo-[1,2-a]pyridin-6-yl)-2-fluoro-4-(3-methylpiperazin-1-yl)benzamide dihydrochloride], in that order: 0.056 µM, 1.8217 and 0.0128 µM.
Regarding `Cc1cn2cc(NC(=O)c3ccc(N4CCNC(C)(C)C4)nc3)ccc2n1` [Example 13, 6-(3,3-dimethyl-piperazin-1-yl)-N-(2-methyl-imidazo[1,2-a]-pyridin-6-yl)-nicotinamide], in the assay with SMN protein, the “EC1.5x SMN protein” value came to 1.7564 µM and the “max. fold increase” value is given as 1.624. The EC (1.5-fold) in assay [1] worked out at 1.03 µM.
The matching figures for `Cc1cn2cc(NC(=O)c3ccc(C4CCNCC4)nc3)cc(F)c2n1` [Example 79, N-(8-fluoro-2-methylimidazo[1,2-a]pyridin-6-yl)-6-(piperidin-4-yl)nicotinamide dihydrochloride]: 0.2559 µM, 1.6574 and 0.0559 µM.
For `Cc1cn2cc(NC(=O)c3ccc(N4CCN(C)CC4)nc3)cc(F)c2n1` [Example 32, N-(8-fluoro-2-methylimidazo-[1,2-a]pyridin-6-yl)-6-(4-methyl-piperazin-1-yl)-nicotinamide], in that order: 0.2028 µM, 1.7579 and 0.0938 µM.
For the compound `COc1cc(N2CCNCC2)ncc1C(=O)Nc1cc(F)c2nc(C)cn2c1` [Example 69, N-(8-fluoro-2-methylimidazo[1,2-a]pyridin-6-yl)-4-methoxy-6-(piperazin-1-yl)nicotinamide], in the assay with SMN protein, the “EC1.5x SMN protein” value worked out at 0.1645 µM and the “max. fold increase” value is reported as 1.7612. Moreover, the EC (1.5-fold) in assay [1] came out at 0.0308 µM.
Turning to `Cc1cn2cc(NC(=O)c3ccc(N4CCNCC4)cc3)nc2c(C)n1` [Example 1, N-(6,8-dimethylimidazo[1,2-a]pyrazin-2-yl)-4-(piperazin-1-yl)benzamide], in the assay on SMN protein, the “EC1.5x SMN protein” value was 0.7747 µM and the “max. fold increase” value is recorded as 1.6736. Moreover, the EC (1.5-fold) in assay [1] was 0.0316 µM.
The matching figures for `Cc1cn2cc(NC(=O)c3ccc(N4CCNC(C)C4)c(F)c3F)cc(F)c2n1` (racemic) [Example 45, rac-2,3-difluoro-N-(8-fluoro-2-methylimidazo[1,2-a]pyridin-6-yl)-4-(3-methylpiperazin-1-yl)benzamide hydrochloride]: 0.5147 µM, 1.6445 and 0.0615 µM.
Regarding `Cc1cn2cc(NC(=O)c3ccc(N4CCNC(C)C4)cn3)nc2c(C)n1` (racemic) [Example 10, rac-N-(6,8-dimethyl-imidazo[1,2-a]-pyrazin-2-yl)-5-(3-methyl-piperazin-1-yl)picolinamide], in the assay with SMN protein, the “EC1.5x SMN protein” value was 0.329 µM and the “max. fold increase” value is 1.735. For the same compound, the EC (1.5-fold) in assay [1] is 0.665 µM.
The matching figures for `COc1nc(N2CCNC(C)C2)ccc1C(=O)Nc1cc(F)c2nc(C)cn2c1` (racemic) [Example 74, rac-N-(8-fluoro-2-methylimidazo[1,2-a]pyridin-6-yl)-2-methoxy-6-(3-methylpiperazin-1-yl)nicotinamide]: 0.1524 µM, 1.709 and 0.0161 µM.
As for `Cc1cn2cc(NC(=O)c3ccc(N4CCNC(C)C4)nc3)cc(Cl)c2n1` (racemic) [Example 55, rac-N-(8-chloro-2-methylimidazo[1,2-a]pyridin-6-yl)-6-(3-methylpiperazin-1-yl)nicotinamide dihydrochloride], in the assay on SMN protein, the “EC1.5x SMN protein” value was 0.7112 µM and the “max. fold increase” value amounted to 1.8752. The EC (1.5-fold) in assay [1] amounted to 0.141 µM.
For `Cc1nc2c(F)cc(NC(=O)c3ccc(N4CCN5CCC[C@@H]5C4)cc3F)cc2o1` [Example 34, (R)-2-fluoro-N-(4-fluoro-2-methyl-benzo[d]oxazol-6-yl)-4-(hexahydro-pyrrolo[1,2-a]-pyrazin-2(1H)-yl)benzamide], in that order: 0.7793 µM, 1.6527 and 0.328 µM.
For `Cc1cn2cc(NC(=O)c3cnc(N4CCNCC4)c(C)c3)cc(F)c2n1` [Example 67, N-(8-fluoro-2-methylimidazo[1,2-a]pyridin-6-yl)-5-methyl-6-(piperazin-1-yl)nicotinamide], in that order: 0.866 µM, 1.6552 and 0.318 µM.
For `Cc1cn2cc(NC(=O)c3ccc(N4CCNC(C)C4)nc3)nc2c(C)n1` (racemic) [Example 7, rac-N-(6,8-dimethyl-imidazo[1,2-a]-pyrazin-2-yl)-6-(3-methyl-piperazin-1-yl)nicotinamide], in that order: 0.2834 µM, 1.7936 and 0.142 µM.
For the compound `CCN1CCN(c2ccc(C(=O)Nc3cn4cc(C)nc(C)c4n3)cn2)CC1` [Example 8, N-(6,8-dimethyl-imidazo[1,2-a]-pyrazin-2-yl)-6-(4-ethyl-piperazin-1-yl)nicotinamide], in the assay on SMN protein, the “EC1.5x SMN protein” value amounted to 0.5175 µM and the “max. fold increase” value came to 1.7677. Besides, the EC (1.5-fold) in assay [1] turned out to be 0.201 µM.
Regarding `Cc1cn2cc(NC(=O)c3ccc(C4CCN(C)CC4)nc3)ccc2n1` [Example 78, N-(2-methylimidazo[1,2-a]pyridin-6-yl)-6-(1-methylpiperidin-4-yl)nicotinamide], in the assay on SMN protein, the “EC1.5x SMN protein” value was found to be 1.013 µM and the “max. fold increase” value is given as 1.7897. The EC (1.5-fold) in assay [1] was 0.622 µM.
For `Cc1cn2cc(NC(=O)c3ccc(N4CCN(C)CC4)cc3F)nc2c(C)n1` [Example 4, N-(6,8-dimethyl-imidazo[1,2-a]-pyrazin-2-yl)-2-fluoro-4-(4-methylpiperazin-1-yl)benzamide], in that order: 0.5614 µM, 1.769 and 0.232 µM.
Regarding `Cc1cn2cc(NC(=O)c3cnc(N4CCNCC4)cc3F)cc(F)c2n1` [Example 68, 4-fluoro-N-(8-fluoro-2-methylimidazo[1,2-a]pyridin-6-yl)-6-(piperazin-1-yl)nicotinamide], in the assay with SMN protein, the “EC1.5x SMN protein” value worked out at 0.057 µM and the “max. fold increase” value is given as 1.6943. The EC (1.5-fold) in assay [1] turned out to be 0.0285 µM.

Values taken from patent US10501482B2, “Compounds for treating spinal muscular atrophy” (Hoffmann-La Roche Inc., priority 2013, dated 2019).
